Results on 34 molecules are retold here after ChEMBL document CHEMBL1909558, “Discovery, synthesis and SAR analysis of novel selective small molecule S1P4-R agonists based on a (2Z,5Z)-5-((pyrrol-3-yl)methylene)-3-alkyl-2-(alkylimino)thiazolidin-4-one chemotype” (Bioorg Med Chem Lett, 2011).

Activity calls are given as the source filed them. No cut-off for these calls is given here. A value given as a limit tells only on which side of the number the result lay.

Sequence of Sphingosine 1-phosphate receptor 1 (P21453 whole entry): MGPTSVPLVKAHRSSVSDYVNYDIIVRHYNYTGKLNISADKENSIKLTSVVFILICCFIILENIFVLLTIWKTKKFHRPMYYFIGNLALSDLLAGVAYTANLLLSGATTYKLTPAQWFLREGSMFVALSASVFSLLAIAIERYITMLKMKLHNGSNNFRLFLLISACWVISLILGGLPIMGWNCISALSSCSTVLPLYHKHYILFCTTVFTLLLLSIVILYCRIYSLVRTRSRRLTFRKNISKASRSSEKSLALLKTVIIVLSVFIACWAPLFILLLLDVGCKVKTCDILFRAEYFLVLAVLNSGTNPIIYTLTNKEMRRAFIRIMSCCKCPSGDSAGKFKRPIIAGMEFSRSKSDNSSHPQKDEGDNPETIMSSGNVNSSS

The first assay addresses T1, Sphingosine 1-phosphate receptor 4 (Homo sapiens, UniProt O95977).
T1 sequence (O95977 whole entry): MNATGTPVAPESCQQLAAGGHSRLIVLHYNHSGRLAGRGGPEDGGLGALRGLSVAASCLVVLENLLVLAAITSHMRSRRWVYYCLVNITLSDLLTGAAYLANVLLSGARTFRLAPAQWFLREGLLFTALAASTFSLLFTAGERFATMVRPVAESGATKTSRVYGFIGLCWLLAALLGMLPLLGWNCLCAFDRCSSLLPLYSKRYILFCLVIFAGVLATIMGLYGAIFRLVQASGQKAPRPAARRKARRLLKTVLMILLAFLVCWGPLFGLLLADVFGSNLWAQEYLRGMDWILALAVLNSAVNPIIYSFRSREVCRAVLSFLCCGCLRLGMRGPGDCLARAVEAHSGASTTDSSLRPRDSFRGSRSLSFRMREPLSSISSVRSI
In words: Agonist activity at S1P4 receptor in human U2OS cells expressing VP16-GAL4 transcriptional factor and beta-arrestin/TEV protease fusion protein assessed as migration of VP16-GAL4 into nucleus by FRET based beta lactamase reporter gene assay. It counts as functional, cell-based. A general note: Reporter assays use an easily measured gene product as a stand-in for the process of interest.
In general, EC50 refers to the concentration at which the effect is half-maximal. With `Cc1cc(/C=C2\S/C(=N\c3ccccc3)N(C)C2=O)c(C)n1-c1ccccc1F`, the EC50 was found to be 2800 nM.

Regarding `C/N=C1/NC(=O)/C(=C/c2cc(C)n(-c3ccccc3F)c2C)S1`, the EC50 amounted to 3600 nM. For `CCCCCCCCc1ccc2nc([C@@H](N)COP(=O)(O)O)[nH]c2c1`, the EC50 stood at 36 nM.

For the molecule `C/N=C1/NC(=O)/C(=C/c2cc(C)n(-c3ccc(F)cc3F)c2C)S1`, the concentration for a half-maximal effect (EC50) was 1000 nM. Turning to `Cc1cc(/C=C2\S/C(=N\CCO)N(C)C2=O)c(C)n1Cc1ccccc1`, the EC50 is 396 nM. With `C/N=C1\S/C(=C\c2cc(C)n(-c3ccccn3)c2C)C(=O)N1C`, the EC50 is 1800 nM. On to `C/N=C1\S/C(=C\c2cc(C)n(-c3ccc(F)cc3F)c2C)C(=O)N1CCOC`, for which the EC50 amounted to 1700 nM.

Consider `C/N=C1/NC(=O)/C(=C/c2cnn(-c3ccc(F)cc3)c2C)S1`, for which the concentration giving a half-maximal response (EC50) is 3800 nM.

In the next assay the target is Sphingosine 1-phosphate receptor 5 (Homo sapiens, UniProt Q9H228). As to the kind of experiment: Agonist activity at S1P5 receptor. It counts as functional.
Sequence of Sphingosine 1-phosphate receptor 5 (Q9H228 whole entry): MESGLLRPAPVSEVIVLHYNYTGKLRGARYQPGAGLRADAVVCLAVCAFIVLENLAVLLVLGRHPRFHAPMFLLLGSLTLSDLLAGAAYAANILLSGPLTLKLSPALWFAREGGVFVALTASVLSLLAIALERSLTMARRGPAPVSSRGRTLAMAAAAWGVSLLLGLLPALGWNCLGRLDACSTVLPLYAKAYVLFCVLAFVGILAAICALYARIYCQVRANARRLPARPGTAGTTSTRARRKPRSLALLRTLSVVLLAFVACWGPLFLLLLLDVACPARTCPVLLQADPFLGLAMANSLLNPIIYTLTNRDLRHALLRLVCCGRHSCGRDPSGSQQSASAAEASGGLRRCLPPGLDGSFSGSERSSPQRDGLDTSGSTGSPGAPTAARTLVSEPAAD
`CCCCCCCCc1ccc2nc([C@@H](N)COP(=O)(O)O)[nH]c2c1` returned an EC50 of 8.2 nM.

A further assay concerns the target Sphingosine 1-phosphate receptor 1 (Homo sapiens, UniProt P21453). In words: Agonist activity at S1P1 receptor. The class given is functional.
Take `CCCCCCCCc1ccc([C@H]2C[C@H](COP(=O)(O)O)N[C@@H]2CO)cc1`: the EC50 is over 10000 nM. `CCCCCCCCc1ccc2nc([C@@H](N)COP(=O)(O)O)[nH]c2c1`: the response was half-maximal at 21 nM (EC50).

The target of another assay is T2, Sphingosine 1-phosphate receptor 4 (Homo sapiens) (UniProt O95977).
T2 sequence (whole entry): T1 sequence (O95977 whole entry)
As to the kind of experiment: Agonist activity at S1P4 receptor in human U2OS cells expressing VP16-GAL4 transcriptional factor and beta-arrestin/TEV protease fusion protein assessed as migration of VP16-GAL4 into nucleus at 25 uM by FRET based beta lactamase reporter gene assay. The class given is functional, cell-based.
As to `C/N=C1/NC(=O)/C(=C/c2cnn(-c3ccc(F)cc3F)c2)S1`, the outcome was inactive. `C/N=C1\S/C(=C\c2cc(C)n(-c3ccc(OC)c(C(F)(F)F)c3)c2C)C(=O)N1C`: the outcome was inactive. Regarding `C/N=C1/NC(=O)/C(=C/c2cnn(-c3ccccc3F)c2)S1`, the outcome was inactive. On to `CCC/N=C1\S/C(=C\c2cc(C)n(-c3ccccc3F)c2C)C(=O)N1CCC`, for which the result was inactive. In the case of `Cc1cc(/C=C2\SC(=N)NC2=O)c(C)n1-c1ccccc1F`, the outcome was inactive.

In the case of `Cc1cc(/C=C2\S/C(=N\c3ccccc3)NC2=O)c(C)n1-c1ccccc1F`, the result was inactive. As to `C/N=C1\O/C(=C\c2cc(C)n(-c3ccccc3F)c2C)C(=O)N1C`, the result was inactive. In the case of `C/N=C1/NC(=O)/C(=C/c2ccn(-c3ccccc3F)c2)S1`, the outcome was inactive. In the case of `C/N=C1\S/C(=C\c2cc(C)n(-c3ccccc3C)c2C)C(=O)N1C`, the result was inactive. As for `C/N=C1\S/C(=C\c2cc(C)n(-c3ccccc3Br)c2C)C(=O)N1C`, the result was inactive. As to `CCCC/N=C1\S/C(=C\c2cc(C)n(-c3ccccc3F)c2C)C(=O)N1CCCC`, the outcome was inactive. With `Cc1cc(/C=C2\SC(=O)N(C)C2=O)c(C)n1-c1ccccc1F`, the result was inactive. Turning to `CC/N=C1\S/C(=C\c2cc(C)n(-c3cccc4ccccc34)c2C)C(=O)N1CC`, the result was inactive. Turning to `C/N=C1\S/C(=C\c2cc(C)n(-c3cccc4ccccc34)c2C)C(=O)N1C`, the outcome was inactive. In the case of `C/N=C1/NC(=O)/C(=C/c2ccn(Cc3ccccc3)c2)S1`, the result was inactive. For the molecule `CC/N=C1\S/C(=C\c2cc(C)n(CCc3ccccc3)c2C)C(=O)N1CC`, the result was inactive. For `CCC/N=C1\NC(=O)/C(=C/c2cc(C)n(-c3ccccc3F)c2C)S1`, the result was inactive.

Take `C/N=C1/NC(=O)/C(=C/c2c(C)n(Cc3ccccc3)c3ccccc23)S1`: the outcome was inactive. As for `COCC/N=C1\S/C(=C\c2cc(C)n(Cc3ccccc3)c2C)C(=O)N1CCOC`, the outcome was inactive. Same read-out and setting: to `C/N=C1\S/C(=C\c2cc(C)n(-c3ccc(C)cc3C)c2C)C(=O)N1C` belongs “inactive”; to `C/N=C1\S/C(=C\c2cc(C)n(-c3cc(C)ccc3OC)c2C)C(=O)N1C`, “inactive”. In the case of `C/N=C1\S/C(=C\c2cc(C)n(-c3ccccc3Cl)c2C)C(=O)N1C`, the outcome was inactive.

As to `C/N=C1/NC(=O)/C(=C/c2c(C)nn(-c3ccc(F)cc3)c2C)S1`, the outcome was inactive. Regarding `Cc1cc(/C=C2\S/C(=N\C(C)C)N(C(C)C)C2=O)c(C)n1-c1ccccc1F`, the outcome was inactive. Still for that read-out and setting: to `CC/N=C1\NC(=O)/C(=C/c2cc(C)n(-c3ccccc3F)c2C)S1` belongs “inactive”.
